The text below walks through data of patent US8067042B1 (Mutual Pharmaceutical Company, Inc., priority 2007, dated 2011).

Where only a bound is given, the exact number is not on record here.

Data set [1] has as its system CYP2C8. It counts as in vitro ADME. Conditions: 50 μM megestrol acetate, microsomes, quercetin.
Data set [2] addresses T1, CYP2C9 (Homo sapiens, UniProt P11712). The data set is classed as in vitro ADME. To be noted: 50 μM megestrol acetate, microsomes.
A further data set addresses CYP2C19 (Homo sapiens, UniProt P33261). The data set is classed as in vitro ADME. To be noted: 50 μM megestrol acetate, microsomes.
Data set [3] concerns the target T2, CYP2D6 (Homo sapiens, UniProt P10635). The data set is classed as in vitro ADME. To be noted: 50 μM megestrol acetate, microsomes.
Data set [4] deals with T3, CYP1A2 (Homo sapiens, UniProt P05177).
T3 sequence (P05177 1-516): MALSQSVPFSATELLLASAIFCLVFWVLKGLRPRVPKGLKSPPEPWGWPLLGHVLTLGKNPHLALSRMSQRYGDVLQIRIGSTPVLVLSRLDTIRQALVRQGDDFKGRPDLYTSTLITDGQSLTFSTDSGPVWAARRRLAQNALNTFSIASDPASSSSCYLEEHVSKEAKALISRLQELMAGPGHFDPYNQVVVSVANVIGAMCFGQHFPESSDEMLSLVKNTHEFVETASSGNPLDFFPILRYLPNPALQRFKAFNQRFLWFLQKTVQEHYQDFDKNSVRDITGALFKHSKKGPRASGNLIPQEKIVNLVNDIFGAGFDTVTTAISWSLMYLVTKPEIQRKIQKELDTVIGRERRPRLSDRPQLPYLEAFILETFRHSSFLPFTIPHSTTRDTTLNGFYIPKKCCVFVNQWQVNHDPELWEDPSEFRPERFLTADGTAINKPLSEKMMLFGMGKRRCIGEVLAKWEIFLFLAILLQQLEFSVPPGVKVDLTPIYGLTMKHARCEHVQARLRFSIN
Method: (§1) The stock solutions were added to incubation mixtures to obtain the final concentrations of 5 and 50 μM, each containing 1% acetonitrile.
(§2) Microsomes were prepared by differential centrifugation of liver homogenates pooled from at least ten human donors.
(§3) After a 5 minute preincubation, nicotinamide adenine dinucleotide phosphate (NADPH) regenerating system (NRS; 1.7 mg/mL β-NADP, 7.8 mg/mL glucose-6-phosphate, and 6 units/mL glucose-6-phosphate dehydrogenase in 2% sodium bicarbonate solution) was added to initiate the reaction. The final incubation volume was 0.5 mL. Incubations were continued for 60 minutes.
(§4) All incubations were conducted at 37±1° C. in a shaking water bath. All incubations were carried out in triplicates.
(§5) After a 5-minute preincubation, 2% sodium bicarbonate solution was added to the incubation mixtures. The final incubation volume was 0.5 mL. Incubations were continued for 60 minutes.
(§6) Incubation reactions, including the matrix controls and metabolic negative controls, were terminated by adding 0.5 mL methanol.
(§7) The samples were analyzed on a Supelcosil LC-18 column (3μ, 120 Å, 3.0×100 mm).

The subject of data set [5] is CYP2C8.
Data set [6] has as its target T1, CYP2C9.
Method: as §1, §2, §3, §4, §5, §6, §7
The next data set concerns CYP2A6. To be noted: 50 μM megestrol acetate, microsomes, tranylcypromine.
The target of another data set is T4, CYP2B6 (Homo sapiens, UniProt P20813).
T4 sequence (P20813 1-491): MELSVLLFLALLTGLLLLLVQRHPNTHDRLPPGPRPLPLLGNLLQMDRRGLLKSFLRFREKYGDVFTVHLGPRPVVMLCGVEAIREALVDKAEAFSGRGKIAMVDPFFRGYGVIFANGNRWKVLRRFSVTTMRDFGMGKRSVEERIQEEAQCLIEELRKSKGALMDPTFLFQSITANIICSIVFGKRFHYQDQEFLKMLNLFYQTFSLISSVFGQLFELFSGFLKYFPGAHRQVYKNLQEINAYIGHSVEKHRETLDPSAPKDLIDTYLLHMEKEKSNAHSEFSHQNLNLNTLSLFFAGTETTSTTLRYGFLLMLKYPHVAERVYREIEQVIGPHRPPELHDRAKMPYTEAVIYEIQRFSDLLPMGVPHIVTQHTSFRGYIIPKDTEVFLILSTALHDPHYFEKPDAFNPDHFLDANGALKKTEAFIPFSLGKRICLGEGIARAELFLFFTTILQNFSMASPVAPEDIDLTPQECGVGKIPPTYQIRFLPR
Conditions: 50 μM megestrol acetate, microsomes, CYP2B6 inhibitor.

In data set [7] the target is T3, CYP1A2. The data set is classed as in vitro ADME. Set-up: purchased BD Biosciences Discovery Labware, Woburn, Mass; host or cells: baculovirus-infected insect cells. Conditions: 50 μM megestrol acetate, 20 pmol CYP1A2.
The target of data set [8] is T1, CYP2C9. It counts as in vitro ADME. Details: purchased BD Biosciences Discovery Labware, Woburn, Mass; host or cells: baculovirus-infected insect cells. Conditions: 50 μM megestrol acetate, 20 pmol CYP2C9.
For data set [9], the target named is T2, CYP2D6. The data set is classed as in vitro ADME. Set-up: purchased BD Biosciences Discovery Labware, Woburn, Mass; host or cells: baculovirus-infected insect cells. To be noted: 50 μM megestrol acetate, 20 pmol CYP2D6.
In another data set the target is CYP3A4 (Homo sapiens, UniProt P08684). The data set is classed as in vitro ADME. Set-up: purchased BD Biosciences Discovery Labware, Woburn, Mass; host or cells: baculovirus-infected insect cells. Conditions: 50 μM megestrol acetate, 20 pmol CYP3A4.
[10] abbreviates: human, microsomes, 60 min, pH 7.4.

T1 sequence (P11712 whole entry): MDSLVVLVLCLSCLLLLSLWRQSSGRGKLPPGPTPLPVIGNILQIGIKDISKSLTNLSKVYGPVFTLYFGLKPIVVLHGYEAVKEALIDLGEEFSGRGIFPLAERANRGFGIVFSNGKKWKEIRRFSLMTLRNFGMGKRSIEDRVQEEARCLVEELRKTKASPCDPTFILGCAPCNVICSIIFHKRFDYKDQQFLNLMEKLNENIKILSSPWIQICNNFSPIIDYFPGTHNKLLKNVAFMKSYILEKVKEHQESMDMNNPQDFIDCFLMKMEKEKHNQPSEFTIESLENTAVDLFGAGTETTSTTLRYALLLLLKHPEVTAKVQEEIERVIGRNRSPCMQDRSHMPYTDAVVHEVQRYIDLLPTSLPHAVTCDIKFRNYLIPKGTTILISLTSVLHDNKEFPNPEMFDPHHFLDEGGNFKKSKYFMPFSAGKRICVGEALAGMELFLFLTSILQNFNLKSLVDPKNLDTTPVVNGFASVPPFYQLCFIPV
T2 sequence (P10635 whole entry): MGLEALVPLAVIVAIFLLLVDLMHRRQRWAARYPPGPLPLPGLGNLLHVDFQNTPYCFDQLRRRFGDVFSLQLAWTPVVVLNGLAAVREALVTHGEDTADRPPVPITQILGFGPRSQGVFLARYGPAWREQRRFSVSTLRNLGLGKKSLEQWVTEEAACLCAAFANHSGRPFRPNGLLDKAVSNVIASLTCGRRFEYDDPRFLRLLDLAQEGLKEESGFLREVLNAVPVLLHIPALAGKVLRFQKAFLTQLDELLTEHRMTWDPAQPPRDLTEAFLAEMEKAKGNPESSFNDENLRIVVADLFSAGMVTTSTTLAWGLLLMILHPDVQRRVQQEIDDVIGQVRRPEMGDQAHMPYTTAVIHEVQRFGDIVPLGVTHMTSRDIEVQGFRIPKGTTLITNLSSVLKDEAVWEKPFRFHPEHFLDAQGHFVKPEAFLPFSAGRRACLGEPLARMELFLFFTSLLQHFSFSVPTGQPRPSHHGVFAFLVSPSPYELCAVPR
Sequence of CYP3A4 (P08684 2-503 limits assumed): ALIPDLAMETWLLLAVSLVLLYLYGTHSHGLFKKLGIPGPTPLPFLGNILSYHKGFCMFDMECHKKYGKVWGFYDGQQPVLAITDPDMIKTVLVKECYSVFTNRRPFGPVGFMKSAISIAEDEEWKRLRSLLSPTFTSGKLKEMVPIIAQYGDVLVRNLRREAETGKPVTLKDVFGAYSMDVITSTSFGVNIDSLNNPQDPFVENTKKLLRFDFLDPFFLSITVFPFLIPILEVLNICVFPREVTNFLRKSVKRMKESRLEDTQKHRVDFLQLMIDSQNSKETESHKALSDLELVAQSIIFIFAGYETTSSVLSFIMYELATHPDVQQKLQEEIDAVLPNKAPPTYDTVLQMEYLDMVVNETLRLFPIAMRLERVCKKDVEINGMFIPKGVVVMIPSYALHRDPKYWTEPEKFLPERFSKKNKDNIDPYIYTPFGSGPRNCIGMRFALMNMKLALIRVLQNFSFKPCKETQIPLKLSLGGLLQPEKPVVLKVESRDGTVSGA
Sequence of CYP2C19 (P33261 whole entry): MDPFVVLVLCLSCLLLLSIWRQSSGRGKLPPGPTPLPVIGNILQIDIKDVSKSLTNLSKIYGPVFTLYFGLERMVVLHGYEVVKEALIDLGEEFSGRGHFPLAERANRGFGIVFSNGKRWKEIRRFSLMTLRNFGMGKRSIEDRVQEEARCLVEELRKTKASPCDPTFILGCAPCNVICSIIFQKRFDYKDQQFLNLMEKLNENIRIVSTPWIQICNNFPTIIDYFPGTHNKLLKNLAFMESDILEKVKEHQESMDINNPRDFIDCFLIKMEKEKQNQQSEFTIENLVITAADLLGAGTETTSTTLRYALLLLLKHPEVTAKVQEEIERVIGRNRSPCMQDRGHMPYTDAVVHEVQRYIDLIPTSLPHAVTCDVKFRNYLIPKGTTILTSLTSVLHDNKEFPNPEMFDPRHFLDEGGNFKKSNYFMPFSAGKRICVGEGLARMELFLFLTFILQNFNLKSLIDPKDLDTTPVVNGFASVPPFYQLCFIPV
Method for CYP2E1: as §1, §3, §4, §5, §6, §7

With `CC(=O)O[C@]1(C(C)=O)CC[C@H]2[C@@H]3C=C(C)C4=CC(=O)CC[C@]4(C)[C@H]3CC[C@@]21C` [Megestrol Acetate, 17 α-acetyloxy-6-methylpregna-4,6-diene-3,20-dione], the “difference in metabolism in the presence or absence of the inhibitor (LC/MS)” value in the data set with CYP2C8 [1] is given as “a significant difference in metabolism”; on CYP2C9 [2], “no significant difference in metabolism”; on CYP2C19, “no significant difference in metabolism”; at CYP2D6 [3], “no significant difference in metabolism”; with CYP2A6, “a slight difference in metabolism”; on CYP2B6, “no significant difference in metabolism”. The “percent metabolized in presence vs absence of inhibitor (unpaired two-tailed t-test)” value on CYP1A2 [4] is on record as “does not differ from the percentage of megestrol acetate metabolized in the absence of the inhibitor”; in the data set on CYP2C8 [5], “less than that of the percentage of megestrol acetate metabolized in the absence of the inhibitor”; on CYP2C9 [6] it was “not different from the percentage of megestrol acetate metabolized in the absence of the inhibitor”; in the data set on CYP2E1, “less than that of the percentage of megestrol acetate metabolized in the absence of the inhibitor”. In addition, the “metabolized in pooled human liver microsomes” value on CYP1A2 [4] (setting [10]), in the data set on CYP2C8 [5] (setting [10]), at CYP2C9 [6] (setting [10]) and in the data set with CYP2E1 (setting [10]) was more than 20% throughout. For the same compound, in the data set with CYP2C8 [5] (50 μM (with 100 μM Quercetin)), the “Percent of Parent Disappearance Individual” value is 7.51%. For the same compound, at CYP1A2 [7], the “metabolism based on analysis of metabolites formed” value is on record as less than 1%. Further, the values for the metabolites formed entry at CYP2C9 [8] and at CYP2D6 [9] were “no metabolites observed” and “no metabolites were detected”, respectively. Further, the “metabolism of megestrol acetate by mass spectrometric methods” value on CYP3A4 is “More than 50%”.
